Patent publication US20230012172A1, “COMPOSITIONS AND METHODS FOR TREATMENT OF PLATINUM-BASED CHEMOTHERAPEUTIC RESISTANT TUMORS” (The George Washington University, priority 2020, published 2023)

Tests used:
SENP1 [1] = biological target: T1, SENP1 (Homo sapiens, UniProt Q9P0U3); assay: SENP1 inhibition in IGROV1 cells (SUMOylated JAK2, Western blot); format: cell-based; parameters: endogenous in cells; host or cells: IGROV1; details: incubated 48 hours, read-out: inhibited deSUMOylation of JAK2 with IC50
T1 sequence (Q9P0U3 1-644): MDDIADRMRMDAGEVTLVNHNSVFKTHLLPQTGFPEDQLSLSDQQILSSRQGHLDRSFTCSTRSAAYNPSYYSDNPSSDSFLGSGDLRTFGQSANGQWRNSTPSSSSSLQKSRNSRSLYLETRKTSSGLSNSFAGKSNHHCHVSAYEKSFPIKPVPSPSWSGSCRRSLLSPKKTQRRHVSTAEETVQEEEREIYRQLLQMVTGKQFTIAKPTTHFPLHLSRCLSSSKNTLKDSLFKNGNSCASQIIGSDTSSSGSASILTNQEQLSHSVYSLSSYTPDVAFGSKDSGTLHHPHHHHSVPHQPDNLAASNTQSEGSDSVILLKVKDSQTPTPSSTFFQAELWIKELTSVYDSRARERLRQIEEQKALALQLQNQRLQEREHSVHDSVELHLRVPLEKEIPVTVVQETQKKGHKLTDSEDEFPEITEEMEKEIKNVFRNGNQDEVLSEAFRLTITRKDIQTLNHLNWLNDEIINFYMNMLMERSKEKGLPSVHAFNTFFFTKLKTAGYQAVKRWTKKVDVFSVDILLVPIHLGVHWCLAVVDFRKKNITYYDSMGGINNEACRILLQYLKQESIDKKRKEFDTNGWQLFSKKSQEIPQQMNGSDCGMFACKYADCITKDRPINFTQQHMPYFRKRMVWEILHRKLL
Experimental: FIGS. 11A-11L depict images illustrating identification of a novel potent SENP1 inhibitor, UA. FIGS. 11A and 11B show Mc (FIG. 11A) and UA (FIG. 11B) inhibited SENP1 activity in vivo. IGROV1 cells were incubated with Mc or UA for 48 hours and harvested for Western blot for indicated proteins. […]. Intensity of SUMOylated JAK2 in B was measured by Quantity One software. FIGS. 11D and 11E show Mc (FIG. 11D) and UA (FIG. 11E) inhibited SENP1 activity in vitro. Recombinant His-JAK2 was SUMOylated as in FIG. 2F, followed by incubation with recombinant GST-SENP1 together with Mc or UA for 3 hours (h). […]. Intensity of SUMOylated JAK2 was measured by Quantity One software. […] SENP1 stability was analyzed using Western blot against SENP1 antibody in IGROV1 cells. […] SENP1 stability was analyzed by using Western blot against SENP1 antibody. […] Green: UA; Salmon: interface. Right panel, active residues of SENP1 for SENP1:UA complex. Green: UA; Salmon: active residues. […] Stability of SENP1-C603A was analyzed by using Western blot against SENP1 antibody
To determine the functional consequence of SENP1-JAK2 interaction, it was examined whether inhibition of SENP1 affected SUMOylation of JAK2. To this end, JAK2 was immunoprecipitated and the SUMOylation level of JAK2 was evaluated using an antibody against SUMO2/3 in SENP1 depleted cells.

SENP1 [2] = biological target: T1, SENP1; assay: In vitro deSUMOylation assay with recombinant His-JAK2 and GST-SENP1; format: biochemical; parameters: made in house; host or cells: E. coli BL21 (DE3) for pET28a-JAK2
Experimental: To further determine whether SENP1 can directly deSUMOylate JAK2, in vitro deSUMOylation assays were performed by using purified recombinant His-JAK2 and GST-SENP1 proteins.
In vitro SUMOylation assay. The SUMOylation reactions were performed according to the manufacture's instruction (BML-UW8955-0001; ENZO). Briefly, 200 nM of purified HIS-JAK2 was suspended in reaction buffer (20 μl) containing Mg-ATP, SUMO E1, SUMO E2 and recombinant SUMOs. RanGAP1 (provided in the kit) was used as the substrate for positive control. The reaction was incubated at 37° C. for 60 minutes and terminated by using 20 μl of SDS loading buffer. […] The reactions were then subjected to Western blot to evaluate SUMOylation level.
Protein expression and purification. pET28a-JAK2 and its mutant was transformed in BL21 (DE3) E. coli cells by heat shot method at 42° C. and grown in Luria Broth (LB) at 37° C. E. coli cells were induced with 0.5 mM IPTG to induct protein expression. Cells were harvested by centrifugation at 5,000 g, 4° C. for 15 min and the pellet was resuspended in lysis buffer (20 mM Tris pH 7.9, 500 mM NaCl, 5 mM imidazole, 2 mM DTT and 1× protease inhibitor cocktail). Cells were then sonicated and centrifuged at 14,000 g, 4° C. for 15 min. 1 ml of Ni-NTA was added to the supernatant and incubated at 4° C. with end-to-end mixing for 2 hours and subjected to a column. The Ni-NTA resin was washed with 10 ml wash buffer (20 mM Tris pH 7.9, 250 mM NaCl, 15 mM Imidazole and 0.5 mM DTT) and eluted with 1 ml elution buffer (20 mM Tris pH 7.9, 250 mM NaCl and 1 M imidazole). The elute was then concentrated by using a protein concentrator (Thermo Scientific™ Pierce™) and resuspend in dialysis buffer (50 mM Tris pH 7.9, 50 mM NaCl, 2 mM DTT, and 10% glycerol). The purified protein was stored at −80° C. pGEX-4T1-SENP1 and its mutant were purified using following buffers: lysis buffer (1 mM DTT, and lx protease inhibitor cocktail, 800 mM NaCl, 5 mM EDTA, 50 mM Tris-pH8.0, 0.1% Triton x-100), wash buffer (800 mM NaCl, 5 mM EDTA, 50 mM Tris-pH8.0, 0.1% Triton x-100), elution buffer (40 mM glutathione, 800 mM NaCl, 5 mM EDTA, 50 mM Tris-pH8.0, 0.1% Triton x-100), dialysis buffer (50 mM Tris pH 7.9, 50 mM NaCl, 2 mM DTT, and 10% glycerol).

[3] = recombinant GST-SENP1, 3 hours, read-out: IC50 to inhibit deSUMOylation of His-JAK2 in vitro

Structure (SMILES)	IC50 (SENP1 [1]) [µM]	IC50 (SENP1 [2]; in vitro, read-out: SENP1 activity was inhibited with IC50) [µM]	IC50 (SENP1 [2]; [3]) [µM]	fold more potency to inhibit deSUMOylation of His-JAK2 in vitro than Mc (SENP1 [2]; UA versus Mc) [fold]
CC1(C)CC[C@]2(C(=O)O)CC[C@]3(C)C(=CC[C@@H]4[C@@]5(C)CC[C@H](O[C@@H]6O[C@H](C(=O)O)[C@@H](O)[C@H](O[C@@H]7OC[C@@H](O)[C@H](O)[C@H]7O)[C@H]6O)C(C)(C)[C@@H]5CC[C@]43C)[C@@H]2C1 [Mc, Momordin Ic]	31.8	15.4	19.9	–
C[C@H]1[C@H](C)CC[C@]2(C(=O)O)CC[C@]3(C)C(=CC[C@@H]4[C@@]5(C)CC[C@H](O)C(C)(C)[C@@H]5CC[C@]43C)[C@H]12 [UA, ursolic acid]	0.24	–	0.0064	3000
